tested on: not given; test: not given; conditions: not given

Row | melting point | Compound
1 | 240.9 to 242.5 °C | CC[C@@H](NC(=O)c1c[nH]c2ncc(C3CC3)nc12)C(=O)N1CCCC1 [Example 23, 2-Cyclopropyl-5H-pyrrolo[2,3-b]pyrazine-7-carboxylic acid [(R)-1-(pyrrolidine-1-carbonyl)-propyl]-amide]
2 | 185 to 188 °C | CC(=O)N1CCN(c2ccc(-c3cnc4[nH]cc(C(=O)N[C@@H](C(=O)N5CC(C#N)C5)C5CC5)c4n3)cc2)CC1 [Example 143, 2-[4-(4-Acetyl-piperazin-1-yl)-phenyl]-5H-pyrrolo[2,3-b]pyrazine-7-carboxylic acid [(R)-2-(3-cyano-azetidin-1-yl)-1-cyclopropyl-2-oxo-ethyl]-amide]

target: T1, h-jak3(810-1124) (JAK3: Recombinant human kinase domain) (Homo sapiens, UniProt P52333); test: Determination of IC50 of Janus Kinase (JAK) inhibition: JAK3 radioactive end-point 33P-ATP kinase assay; format: biochemical; conditions: no additive; ATP 1.5 uM, peptide 50 uM, 20 minutes, room temperature; read-out: Ic50 h-jak3(810-1124)-sf9-c: no additive
T1 construct: jak3(810- 1124)-sf9-c; made in house; host or cells: Sf9
T1 sequence (P52333 810-1124): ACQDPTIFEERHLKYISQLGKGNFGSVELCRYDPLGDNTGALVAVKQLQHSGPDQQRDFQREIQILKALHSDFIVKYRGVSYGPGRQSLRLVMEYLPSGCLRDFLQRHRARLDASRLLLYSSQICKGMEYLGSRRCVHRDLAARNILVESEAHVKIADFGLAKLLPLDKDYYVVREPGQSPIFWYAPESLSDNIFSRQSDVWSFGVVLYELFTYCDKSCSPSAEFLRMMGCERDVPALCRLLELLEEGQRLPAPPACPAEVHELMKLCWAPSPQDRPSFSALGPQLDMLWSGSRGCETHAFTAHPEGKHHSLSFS

Row | Compound | IC50
3 | CC(C)(C)[C@@H](NC(=O)c1c[nH]c2ncc(C3CC3)nc12)C(=O)N1CCCC(C#N)C1 (stereo partly drawn) [Example I-29, 2-Cyclopropyl-5H-pyrrolo[2,3-b]pyrazine-7-carboxylic acid [(R)-1-(3-cyano-piperidine-1-carbonyl)-2,2-dimethyl-propyl]-amide] | 13.6 nM
4 | CC1(O)CCN(C(=O)[C@H](NC(=O)c2c[nH]c3ncc(C4CC4)nc23)C(C)(C)C)CC1 [Example I-73, 2-Cyclopropyl-5H-pyrrolo[2,3-b]pyrazine-7-carboxylic acid [(R)-1-(4-hydroxy-4-methyl-piperidine-1-carbonyl)-2,2-dimethyl-propyl]-amide] | 3.34 nM
5 | O=C(N[C@@H](C(=O)N1CC2(COC2)C1)C1CC1)c1c[nH]c2ncc(C3CC3)nc12 [Example I-84, 2-Cyclopropyl-5H-pyrrolo[2,3-b]pyrazine-7-carboxylic acid [(R)-1-cyclopropyl-2-(2-oxa-6-aza-spiro[3.3]hept-6-yl)-2-oxo-ethyl]-amide] | 0.75 nM
6 | Cn1cc(-c2cnc3[nH]cc(C(=O)N[C@@H](C(=O)N4C[C@@H]5[C@@H](CO)[C@@H]5C4)C4CC4)c3n2)cn1 [Example I-87, 2-(1-Methyl-1H-pyrazol-4-yl)-5H-pyrrolo[2,3-b]pyrazine-7-carboxylic acid [(R)-1-cyclopropyl-2-((1S,5R,6R)-6-hydroxymethyl-3-aza-bicyclo[3.1.0]hex-3-yl)-2-oxo-ethyl]-amide] | 4.49 nM
7 | CC(C)[C@@H](NC(=O)c1c[nH]c2ncc(C3CC3)nc12)C(=O)N1CCCC1 [Example I-4, 2-Cyclopropyl-5H-pyrrolo[2,3-b]pyrazine-7-carboxylic acid [(R)-2-methyl-1-(pyrrolidine-1-carbonyl)-propyl]-amide] | 4.86 nM
8 | CC[C@@H](NC(=O)c1c[nH]c2ncc(C3CC3)nc12)C(=O)N1CCCC1 [Example I-3, 2-Cyclopropyl-5H-pyrrolo[2,3-b]pyrazine-7-carboxylic acid [(R)-1-(pyrrolidine-1-carbonyl)-propyl]-amide] | 11.7 nM
9 | CC(C)(C)[C@@H](NC(=O)c1c[nH]c2ncc(C3CC3)nc12)C(=O)N1CCC(C#N)CC1 [Example I-35, 2-Cyclopropyl-5H-pyrrolo[2,3-b]pyrazine-7-carboxylic acid [(R)-1-(4-cyano-piperidine-1-carbonyl)-2,2-dimethyl-propyl]-amide] | 0.68 nM
10 | O=C(N[C@@H](C(=O)N1CCCC1)C1CCCCC1)c1c[nH]c2ncc(C3CC3)nc12 [Example I-37, 2-Cyclopropyl-5H-pyrrolo[2,3-b]pyrazine-7-carboxylic acid ((R)-1-cyclohexyl-2-oxo-2-pyrrolidin-1-yl-ethyl)-amide] | 1.8 nM
11 | CCn1cc(-c2cnc3[nH]cc(C(=O)N[C@@H](C(=O)N4CCCC4)C(C)(C)C)c3n2)cn1 [Example I-13, 2-(1-Ethyl-1H-pyrazol-4-yl)-5H-pyrrolo[2,3-b]pyrazine-7-carboxylic acid [(R)-2,2-dimethyl-1-(pyrrolidine-1-carbonyl)-propyl]-amide] | 4.53 nM
12 | N#CC1CCN(C(=O)[C@@H](Cc2ccccc2)NC(=O)c2c[nH]c3ncc(C4CC4)nc23)CC1 [Example I-48, 2-Cyclopropyl-5H-pyrrolo[2,3-b]pyrazine-7-carboxylic acid [(R)-1-benzyl-2-(4-cyano-piperidin-1-yl)-2-oxo-ethyl]-amide] | 0.6 nM
13 | CC(C)(C)[C@@H](NC(=O)c1c[nH]c2ncc(-c3cn[nH]c3)nc12)C(=O)N1CCC(C#N)CC1 [Example I-54, 2-(1H-Pyrazol-4-yl)-5H-pyrrolo[2,3-b]pyrazine-7-carboxylic acid [(R)-1-(4-cyano-piperidine-1-carbonyl)-2,2-dimethyl-propyl]-amide] | 14.9 nM
14 | CCn1cc(-c2cnc3[nH]cc(C(=O)N[C@@H](C(=O)N4CCC(C#N)CC4)C(C)(C)C)c3n2)cn1 [Example I-56, 2-(1-Ethyl-1H-pyrazol-4-yl)-5H-pyrrolo[2,3-b]pyrazine-7-carboxylic acid [(R)-1-(4-cyano-piperidine-1-carbonyl)-2,2-dimethyl-propyl]-amide] | 0.77 nM
15 | Cn1cnc(-c2cnc3[nH]cc(C(=O)N[C@@H](C(=O)N4CCC(C#N)CC4)C(C)(C)C)c3n2)c1 [Example I-77, 2-(1-Methyl-1H-imidazol-4-yl)-5H-pyrrolo[2,3-b]pyrazine-7-carboxylic acid [(R)-1-(4-cyano-piperidine-1-carbonyl)-2,2-dimethyl-propyl]-amide] | ≤ 0.32 nM

The next lines start with the values.

Row | IC50 | Compound
16 | 6.05 nM | N#CC1CCN(C(=O)[C@H](NC(=O)c2c[nH]c3ncc(-c4cn(-c5ccccc5)nn4)nc23)C2CC2)CC1 [Example I-108, 2-(1-Phenyl-1H-[1,2,3]triazol-4-yl)-5H-pyrrolo[2,3-b]pyrazine-7-carboxylic acid [(R)-2-(4-cyano-piperidin-1-yl)-1-cyclopropyl-2-oxo-ethyl]-amide]
17 | 2.66 nM | Cc1nc(-c2cnc3[nH]cc(C(=O)N[C@@H](C(=O)N4CC(C#N)C4)C4CC4)c3n2)cn1-c1ccccc1 [Example I-159, 2-(2-Methyl-1-phenyl-1H-imidazol-4-yl)-5H-pyrrolo[2,3-b]pyrazine-7-carboxylic acid [(R)-2-(3-cyano-azetidin-1-yl)-1-cyclopropyl-2-oxo-ethyl]-amide]
18 | 3.06 nM | N#CC1CCN(C(=O)[C@H](NC(=O)c2c[nH]c3ncc(-c4cc(-c5cccs5)ccn4)nc23)C2CC2)CC1 [Example I-154, 2-(4-Thiophen-2-yl-pyridin-2-yl)-5H-pyrrolo[2,3-b]pyrazine-7-carboxylic acid [(R)-2-(4-cyano-piperidin-1-yl)-1-cyclopropyl-2-oxo-ethyl]-amide]
19 | 4.05 nM | CC(C)(C)[C@@H](NC(=O)c1c[nH]c2ncc(-c3cn(CC(F)(F)F)cn3)nc12)C(=O)N1CCC(C#N)CC1 [Example I-122, 2-[1-(2,2,2-Trifluoro-ethyl)-1H-imidazol-4-yl]-5H-pyrrolo[2,3-b]pyrazine-7-carboxylic acid [(R)-1-(4-cyano-piperidine-1-carbonyl)-2,2-dimethyl-propyl]-amide]
20 | 2.73 nM | N#CC1CN(C(=O)[C@H](NC(=O)c2c[nH]c3ncc(N4Cc5c(Cl)cccc5C4=O)nc23)C2CC2)C1 [Example I-95, 2-(4-Chloro-1-oxo-1,3-dihydro-isoindol-2-yl)-5H-pyrrolo[2,3-b]pyrazine-7-carboxylic acid [(R)-2-(3-cyano-azetidin-1-yl)-1-cyclopropyl-2-oxo-ethyl]-amide]
21 | 2.16 nM | N#CC1CN(C(=O)[C@H](NC(=O)c2c[nH]c3ncc(-c4cc5nccc(OCC(F)(F)F)c5s4)nc23)C2CC2)C1 [Example I-98, 2-[7-(2,2,2-Trifluoro-ethoxy)-thieno[3,2-b]pyridin-2-yl]-5H-pyrrolo[2,3-b]pyrazine-7-carboxylic acid [(R)-2-(3-cyano-azetidin-1-yl)-1-cyclopropyl-2-oxo-ethyl]-amide]
22 | 1.98 nM | CCn1cc(-c2cnc3[nH]cc(C(=O)N[C@@H](C(=O)N4CC(C)(O)C4)C4CC4)c3n2)cn1 [Example I-148, 2-(1-Ethyl-1H-pyrazol-4-yl)-5H-pyrrolo[2,3-b]pyrazine-7-carboxylic acid [(R)-1-cyclopropyl-2-(3-hydroxy-3-methyl-azetidin-1-yl)-2-oxo-ethyl]-amide]
23 | 4.46 nM | N#CC1CCN(C(=O)[C@H](NC(=O)c2c[nH]c3ncc(-c4cc(-c5ccccc5)ccn4)nc23)C2CC2)CC1 [Example I-147, 2-(4-Phenyl-pyridin-2-yl)-5H-pyrrolo[2,3-b]pyrazine-7-carboxylic acid [(R)-2-(4-cyano-piperidin-1-yl)-1-cyclopropyl-2-oxo-ethyl]-amide]
24 | 1.01 nM | CC(C)(C)[C@@H](NC(=O)c1c[nH]c2ncc(-c3cnn(-c4ccc(F)cc4)c3)nc12)C(=O)N1CCC(C#N)CC1 [Example I-117, 2-[1-(4-Fluoro-phenyl)-1H-pyrazol-4-yl]-5H-pyrrolo[2,3-b]pyrazine-7-carboxylic acid [(R)-1-(4-cyano-piperidine-1-carbonyl)-2,2-dimethyl-propyl]-amide]
25 | 6.57 nM | N#CC1CCN(C(=O)[C@H](NC(=O)c2c[nH]c3ncc(-c4cn(C5CCCC5)nn4)nc23)C2CC2)CC1 [Example I-107, 2-(1-Cyclopentyl-1H-[1,2,3]triazol-4-yl)-5H-pyrrolo[2,3-b]pyrazine-7-carboxylic acid [(R)-2-(4-cyano-piperidin-1-yl)-1-cyclopropyl-2-oxo-ethyl]-amide]
26 | 0.62 nM | CCn1cc(-c2cnc3[nH]cc(C(=O)N[C@@H](C(=O)N4CCC(F)(F)CC4)C4CC4)c3n2)cn1 [Example I-144, 2-(1-Ethyl-1H-pyrazol-4-yl)-5H-pyrrolo[2,3-b]pyrazine-7-carboxylic acid [(R)-1-cyclopropyl-2-(4,4-difluoro-piperidin-1-yl)-2-oxo-ethyl]-amide]
27 | 1.27 nM | CC[C@@H](C)[C@@H](NC(=O)c1c[nH]c2ncc(C3CC3)nc12)C(=O)N1CCC(C#N)CC1 [Example I-149, 2-Cyclopropyl-5H-pyrrolo[2,3-b]pyrazine-7-carboxylic acid [(1R,2R)-1-(4-cyano-piperidine-1-carbonyl)-2-methyl-butyl]-amide]
28 | 3.66 nM | CC(C)Oc1cnc2[nH]cc(C(=O)N[C@@H](C(=O)N3CCC(C#N)CC3)C(C)(C)C)c2n1 [Example I-94, 2-Isopropoxy-5H-pyrrolo[2,3-b]pyrazine-7-carboxylic acid [(R)-1-(4-cyano-piperidine-1-carbonyl)-2,2-dimethyl-propyl]-amide]
